Test results reported in PubChem BioAssay (NCI).
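Assay format: 96-well plates, 48-hour exposure. Abbreviation: GI50, concentration required for 50% inhibition of growth. TGI: total growth inhibition.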

What was measured:
Assay in all cases: NCI anticancer screen, dose series, 48 h
[1] = tested on: HCT-116 colon
[2] = tested on: SF-539 CNS
[3] = tested on: SN12C renal
[4] = tested on: A549 NSCLC
[5] = tested on: HL-60(TB) leukemia
[6] = tested on: SW-620 colon
[7] = tested on: OVCAR-5 ovarian
[8] = tested on: KM12 colon
[9] = tested on: MDA-MB-231 breast
[10] = tested on: M14 melanoma

CN1C(=O)N(C)C(O)C(Cl)(Br)C1=O (stereo not given)
TGI [1]: > 100 µM | TGI [2]: > 100 µM | TGI [3]: > 100 µM | TGI [4]: > 100 µM | TGI [5]: > 100 µM | TGI [6]: > 100 µM | TGI [7]: > 100 µM | TGI [8]: > 100 µM | TGI [9]: > 100 µM | TGI [10]: > 100 µM

CSC(SC)=C(C(=O)O)P(=O)(O)O
TGI [1]: > 100 µM | TGI [2]: > 100 µM | TGI [3]: > 100 µM | TGI [4]: > 100 µM | TGI [5]: > 100 µM | TGI [6]: > 100 µM | TGI [7]: > 100 µM | TGI [8]: > 100 µM | TGI [9]: > 100 µM | TGI [10]: > 100 µM

CN(C)CC1CCC/C(=C\c2ccc(OC(=O)c3ccc(Cl)cc3)cc2)C1=O (stereo not given)
TGI [1]: 2.23 µM | TGI [2]: 5.41 µM | TGI [3]: 4.84 µM | TGI [4]: 7.26 µM | TGI [5]: 11.9 µM | TGI [6]: 2.71 µM | TGI [7]: 5.95 µM | TGI [8]: 5.9 µM | TGI [9]: 5.73 µM | TGI [10]: 3.27 µM

N#C/C(=C/n1c(=S)[nH]c2ccc([N+](=O)[O-])cc21)C(N)=O
TGI [1]: > 100 µM | TGI [2]: > 100 µM | TGI [3]: > 100 µM | TGI [4]: > 100 µM | TGI [5]: > 100 µM | TGI [6]: > 100 µM | TGI [7]: > 100 µM | TGI [8]: > 100 µM | TGI [9]: > 100 µM | TGI [10]: > 100 µM

Cc1[nH]c(=O)nc(NCCNCCO)c1C(=O)Nc1cccc2cc3ccccc3cc12
TGI [1]: > 100 µM | TGI [2]: > 100 µM | TGI [3]: > 100 µM | TGI [4]: > 100 µM | TGI [5]: > 100 µM | TGI [6]: > 100 µM | TGI [7]: > 100 µM | TGI [8]: > 100 µM | TGI [9]: > 100 µM | TGI [10]: > 100 µM

CC1=NN(c2nc(N)nc(-c3sccc3N)n2)C(C)(C)C1
TGI [1]: > 100 µM | TGI [2]: > 100 µM | TGI [3]: > 100 µM | TGI [4]: > 100 µM | TGI [5]: > 100 µM | TGI [6]: > 100 µM | TGI [7]: > 100 µM | TGI [8]: > 100 µM | TGI [9]: > 100 µM | TGI [10]: > 100 µM

CCn1c2ccc(C(=O)CCCN3CCCCC3)cc2c2cc(C(=O)CCCN3CCCCC3)ccc21
TGI [1]: 10.8 µM | TGI [2]: 3.37 µM | TGI [3]: 20 µM | TGI [4]: 3.86 µM | TGI [5]: > 100 µM | TGI [6]: 3.9 µM | TGI [7]: 22.8 µM | TGI [8]: 8.76 µM | TGI [9]: 4.74 µM | TGI [10]: 3.6 µM

O=C(OCCN=c1c2ccccc2ccc2ccccc12)c1ccccc1
TGI [1]: > 100 µM | TGI [2]: > 100 µM | TGI [3]: > 100 µM | TGI [4]: > 100 µM | TGI [5]: > 100 µM | TGI [6]: > 100 µM | TGI [7]: > 100 µM | TGI [8]: > 100 µM | TGI [9]: > 100 µM | TGI [10]: > 100 µM

CC(C)c1cccc(C(C)C)c1NC(=O)/C(CC(=O)CC(c1ccccc1)c1c(O)c2ccccc2oc1=O)=N/O (stereo not given)
TGI [1]: > 100 µM | TGI [2]: > 100 µM | TGI [3]: > 100 µM | TGI [4]: > 100 µM | TGI [5]: > 100 µM | TGI [6]: > 100 µM | TGI [7]: > 100 µM | TGI [8]: > 100 µM | TGI [9]: > 100 µM | TGI [10]: > 100 µM

O=c1[nH]c2nc3ccccc3nc2[nH]c1=O
TGI [1]: > 100 µM | TGI [2]: > 100 µM | TGI [3]: > 100 µM | TGI [4]: > 100 µM | TGI [5]: > 100 µM | TGI [6]: > 100 µM | TGI [7]: > 100 µM | TGI [8]: > 100 µM | TGI [9]: > 100 µM | TGI [10]: > 100 µM

C=C(C)OCOCCOC
TGI [1]: > 100 µM | TGI [2]: > 100 µM | TGI [3]: > 100 µM | TGI [4]: > 100 µM | TGI [5]: > 100 µM | TGI [6]: > 100 µM | TGI [7]: > 100 µM | TGI [8]: > 100 µM | TGI [9]: > 100 µM | TGI [10]: > 100 µM

C=C1C(OC2O[C@@H]3O[C@@]4(C)CC[C@H]5[C@H](C)CC[C@@H](C2=C)[C@@]35O4)O[C@@H]2O[C@@]3(C)CC[C@H]4[C@H](C)CC[C@@H]1[C@@]24O3 (stereo not given in full)
TGI [1]: > 50 µM | TGI [2]: > 50 µM | TGI [3]: > 50 µM | TGI [4]: > 50 µM | TGI [5]: > 50 µM | TGI [6]: > 50 µM | TGI [7]: > 50 µM | TGI [8]: > 50 µM | TGI [9]: > 50 µM | TGI [10]: > 50 µM

O=c1c(Cc2ccc(Cl)cc2)nnc2sc(-c3ccc(-c4ccc(F)c(Cl)c4)o3)nn12
TGI [1]: > 100 µM | TGI [2]: > 100 µM | TGI [3]: > 100 µM | TGI [4]: > 100 µM | TGI [5]: > 100 µM | TGI [6]: > 100 µM | TGI [7]: > 100 µM | TGI [8]: > 100 µM | TGI [9]: > 100 µM | TGI [10]: > 100 µM

C=C1OC(c2ccccc2NC)=NC12CCCCC2
TGI [1]: > 100 µM | TGI [2]: > 100 µM | TGI [3]: > 100 µM | TGI [4]: > 100 µM | TGI [5]: > 100 µM | TGI [6]: > 100 µM | TGI [7]: > 100 µM | TGI [8]: > 100 µM | TGI [9]: > 100 µM | TGI [10]: > 100 µM

O=C1C=CC(=O)c2c(O)c(N3CCC[C@H]3CO)c(Cl)c(O)c21
TGI [1]: 3.3 µM | TGI [2]: > 10 µM | TGI [3]: 3.2 µM | TGI [4]: > 10 µM | TGI [5]: 0.249 µM | TGI [6]: 3.51 µM | TGI [7]: > 10 µM | TGI [8]: > 6.06 µM | TGI [9]: 6.48 µM | TGI [10]: 3.61 µM

COc1cc(-c2n/c(=C\c3c(O)[nH]c4ccc(Cl)cc34)cc3c2=Nc2ccccc2-3)ccc1F
GI50 [1]: 1.75 µM | TGI [1]: 3.34 µM | GI50 [2]: 2.79 µM | TGI [2]: 9.87 µM | GI50 [3]: 1.78 µM | TGI [3]: 3.6 µM | GI50 [4]: 1.76 µM | TGI [4]: 3.38 µM | GI50 [5]: 10.9 µM | TGI [5]: 34.7 µM | GI50 [6]: 1.33 µM | TGI [6]: 2.94 µM | GI50 [7]: 3.9 µM | TGI [7]: 13.3 µM | GI50 [8]: 2.28 µM | TGI [8]: 5.01 µM | GI50 [9]: 1.56 µM | TGI [9]: 3.22 µM | GI50 [10]: 1.89 µM | TGI [10]: 3.48 µM

CC1C(NNc2ccccc2)Oc2cc3c(cc2C1c1ccccc1O)OCO3 (stereo not given)
TGI [1]: 18.7 µM | TGI [2]: 4.56 µM | TGI [3]: 20.1 µM | TGI [4]: 15.2 µM | TGI [5]: 15.1 µM | TGI [6]: 28.6 µM | TGI [7]: 19.1 µM | TGI [8]: 16.8 µM | TGI [9]: 28.7 µM | TGI [10]: 11.2 µM
